The record followed here is patent publication US11897862B2 (Gilead Sciences, Inc., priority 2022, dated 2024).

What all share (assay type): cell-based
For experiment [1], the target named is T1, IKZF2 (Homo sapiens, UniProt Q96SW2+Q9UKS7). The experiment is described as follows: Human whole blood IKZF2 degradation (flow cytometry, CD4/CD25/Foxp3+ Treg cells). The arrangement: endogenous in cells. The following applies: 24 hrs incubation, IKZF2 MFI in CD4/CD25/Foxp3+ Treg cells, flow cytometry; for DC50: read-out: IKZF2 EC50. An outline of the steps:
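Fresh healthy-donor human whole blood stimulated with CD3/CD28 activator and serially diluted compound for 24 hrs at 37° C. IKZF2 MFI in CD4/CD25/Foxp3+ Tregs (IKZF1 MFI in CD4+ T cells) measured by flow cytometry after RBC lysis, fixation, permeabilization. EC50 and Dmax versus DMSO wells.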
Target sequence in this assay (Q9UKS7 whole entry): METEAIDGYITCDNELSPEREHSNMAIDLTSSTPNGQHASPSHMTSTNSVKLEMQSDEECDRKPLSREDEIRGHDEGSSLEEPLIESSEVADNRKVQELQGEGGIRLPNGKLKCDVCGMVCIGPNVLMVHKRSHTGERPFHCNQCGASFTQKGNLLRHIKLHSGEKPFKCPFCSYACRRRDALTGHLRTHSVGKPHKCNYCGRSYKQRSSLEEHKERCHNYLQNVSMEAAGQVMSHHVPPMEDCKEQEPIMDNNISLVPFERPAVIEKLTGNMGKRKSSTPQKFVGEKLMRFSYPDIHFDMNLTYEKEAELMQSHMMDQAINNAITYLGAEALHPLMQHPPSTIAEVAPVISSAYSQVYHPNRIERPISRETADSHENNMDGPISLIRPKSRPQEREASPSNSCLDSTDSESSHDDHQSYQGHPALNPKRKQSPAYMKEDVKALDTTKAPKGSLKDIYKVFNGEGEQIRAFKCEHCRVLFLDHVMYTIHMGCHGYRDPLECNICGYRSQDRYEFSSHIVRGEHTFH
Target sequence in this assay (Q96SW2 whole entry): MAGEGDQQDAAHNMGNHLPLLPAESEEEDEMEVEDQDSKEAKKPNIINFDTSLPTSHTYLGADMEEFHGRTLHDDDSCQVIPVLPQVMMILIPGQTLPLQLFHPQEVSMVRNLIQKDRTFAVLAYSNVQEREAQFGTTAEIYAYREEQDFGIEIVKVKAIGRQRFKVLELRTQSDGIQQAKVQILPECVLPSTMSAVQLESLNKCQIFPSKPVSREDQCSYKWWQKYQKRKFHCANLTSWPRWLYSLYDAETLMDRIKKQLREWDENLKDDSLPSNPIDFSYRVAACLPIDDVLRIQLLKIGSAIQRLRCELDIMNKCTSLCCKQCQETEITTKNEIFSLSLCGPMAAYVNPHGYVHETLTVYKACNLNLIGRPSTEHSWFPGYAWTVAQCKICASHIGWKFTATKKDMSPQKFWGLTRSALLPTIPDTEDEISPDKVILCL
Target sequence in this assay (Q16531 whole entry partner): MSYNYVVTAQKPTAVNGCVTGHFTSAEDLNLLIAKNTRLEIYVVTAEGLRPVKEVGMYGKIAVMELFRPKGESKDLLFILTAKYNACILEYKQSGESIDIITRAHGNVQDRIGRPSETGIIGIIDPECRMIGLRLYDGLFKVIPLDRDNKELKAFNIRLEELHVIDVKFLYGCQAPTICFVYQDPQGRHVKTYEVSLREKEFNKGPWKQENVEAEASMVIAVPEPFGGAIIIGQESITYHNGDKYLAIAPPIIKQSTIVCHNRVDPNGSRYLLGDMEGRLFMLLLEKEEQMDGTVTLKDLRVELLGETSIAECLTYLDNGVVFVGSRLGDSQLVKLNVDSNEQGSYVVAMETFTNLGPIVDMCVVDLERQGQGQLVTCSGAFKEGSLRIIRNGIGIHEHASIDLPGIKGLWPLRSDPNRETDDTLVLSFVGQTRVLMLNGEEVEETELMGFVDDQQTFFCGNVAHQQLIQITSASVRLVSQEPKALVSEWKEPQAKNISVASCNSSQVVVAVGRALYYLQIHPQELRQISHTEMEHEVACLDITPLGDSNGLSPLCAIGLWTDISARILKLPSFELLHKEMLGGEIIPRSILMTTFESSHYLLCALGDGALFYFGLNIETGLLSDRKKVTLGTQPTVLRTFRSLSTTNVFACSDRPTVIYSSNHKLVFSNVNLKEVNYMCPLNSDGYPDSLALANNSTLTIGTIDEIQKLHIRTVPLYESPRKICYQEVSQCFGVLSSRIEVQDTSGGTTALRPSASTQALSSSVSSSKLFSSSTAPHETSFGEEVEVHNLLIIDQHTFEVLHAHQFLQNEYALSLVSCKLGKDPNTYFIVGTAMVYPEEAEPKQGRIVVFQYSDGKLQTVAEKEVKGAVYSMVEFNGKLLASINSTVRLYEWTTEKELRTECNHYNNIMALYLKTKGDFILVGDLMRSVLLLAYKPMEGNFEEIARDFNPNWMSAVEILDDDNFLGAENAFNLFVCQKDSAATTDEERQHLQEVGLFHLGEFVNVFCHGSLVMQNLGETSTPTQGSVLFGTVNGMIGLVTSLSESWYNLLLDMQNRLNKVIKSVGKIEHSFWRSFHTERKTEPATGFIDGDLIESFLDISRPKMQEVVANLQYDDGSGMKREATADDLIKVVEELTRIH
In general terms: A flow cytometer gives signals particle by particle.

For the next experiment, the target named is T2, IKZF1 (Homo sapiens, UniProt Q13422+Q96SW2).
T2 construct: expressed in transfected cells
T2 sequence (Q13422 whole entry): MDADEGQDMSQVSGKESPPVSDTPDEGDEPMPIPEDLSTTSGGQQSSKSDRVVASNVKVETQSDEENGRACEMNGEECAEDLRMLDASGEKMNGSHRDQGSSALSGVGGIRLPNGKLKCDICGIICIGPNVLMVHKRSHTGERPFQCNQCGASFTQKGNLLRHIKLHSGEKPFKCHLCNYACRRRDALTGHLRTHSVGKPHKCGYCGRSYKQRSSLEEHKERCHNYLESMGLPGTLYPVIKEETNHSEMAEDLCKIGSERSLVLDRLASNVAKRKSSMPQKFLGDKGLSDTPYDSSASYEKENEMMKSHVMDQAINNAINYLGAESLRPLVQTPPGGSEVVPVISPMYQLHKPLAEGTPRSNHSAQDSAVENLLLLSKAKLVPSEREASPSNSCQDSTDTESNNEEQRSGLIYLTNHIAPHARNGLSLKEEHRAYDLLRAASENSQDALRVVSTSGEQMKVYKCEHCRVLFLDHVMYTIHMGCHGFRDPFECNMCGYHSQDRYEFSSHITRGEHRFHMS
T2 sequence (Q96SW2 whole entry): as the sequence (Q96SW2 whole entry) above
T2 sequence (Q16531 whole entry partner): as the sequence (Q16531 whole entry partner) above
Kind of experiment: HEK293 HiBiT in vitro degradation of IKZF1. To be noted: for Dmax: HEK293, HEK293 HiBiT; for DC50: 18-24 hr incubation, normalized to DMSO control, read-out: IKZF1 EC50. Summed up: (§1)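 Dox-inducible ([…] final, overnight) HEK293 Flp-In T-REx, single-copy target-HiBiT C-terminal fusion; compound serial dilution, 18-24 h, 37 °C; lytic Nano-Glo luminescence; EC50, Dmax.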

Experiment [2] addresses T1, IKZF2. The experiment is described as follows: HEK293 HiBiT in vitro degradation of IKZF2. The arrangement: expressed in transfected cells. To be noted: for Dmax: HEK293, HEK293 HiBiT; for Dmax / IKZF2 Dmax: maximum degradation at the highest concentration tested; for DC50 / IKZF2 Dmax: HEK293 HiBiT; for DC50: 18-24 hr incubation, normalized to DMSO control, read-out: IKZF2 EC50. Summed up: as §1
Target sequence in this assay (Q9UKS7 1-500 isoform Q9UKS7-2): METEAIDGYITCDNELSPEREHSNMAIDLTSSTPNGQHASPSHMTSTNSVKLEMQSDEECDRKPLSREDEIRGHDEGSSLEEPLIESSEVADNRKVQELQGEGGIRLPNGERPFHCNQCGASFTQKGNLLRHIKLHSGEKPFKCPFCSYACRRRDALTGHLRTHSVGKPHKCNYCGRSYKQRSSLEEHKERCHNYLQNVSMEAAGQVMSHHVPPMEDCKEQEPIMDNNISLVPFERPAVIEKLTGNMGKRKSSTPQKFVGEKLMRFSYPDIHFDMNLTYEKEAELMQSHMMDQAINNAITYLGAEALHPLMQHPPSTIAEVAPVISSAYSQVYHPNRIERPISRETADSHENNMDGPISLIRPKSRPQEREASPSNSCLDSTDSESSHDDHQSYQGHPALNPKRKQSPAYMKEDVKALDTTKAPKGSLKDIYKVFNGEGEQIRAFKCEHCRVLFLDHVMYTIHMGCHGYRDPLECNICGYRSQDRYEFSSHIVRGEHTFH
Target sequence in this assay (Q96SW2 whole entry): as the sequence (Q96SW2 whole entry) above
Target sequence in this assay (Q16531 whole entry partner): as the sequence (Q16531 whole entry partner) above

Where [3] appears, read: maximum degradation at the highest concentration tested.

What is called Dmax is the greatest extent of degradation seen. With `O=C1CCC(N2Cc3cc(C[C@H]4CCCC[C@@H]4NC4CC5(CCC(F)(F)CC5)C4)ccc3C2=O)C(=O)N1` (stereo partly drawn) [Example 142], the Dmax came out at 94% at IKZF2 [1], 33% at IKZF1 (setting [3]) and 95% at IKZF2 [2]. For the same molecule, the DC50 at IKZF2 [1] was determined as 5 nM; on IKZF1 (HEK293 HiBiT) it was 74 nM; at IKZF2 [2], 5 nM.
Take `O=C1CCC(N2Cc3c(ccc(C[C@H]4OCCC[C@@H]4NC4CCCC4)c3F)C2=O)C(=O)N1` (stereo partly drawn) [Example 148]: the Dmax at IKZF2 [1] turned out to be 92%; at IKZF2 [2], 94%. Further, the DC50 was 6 nM at IKZF2 [1], above 1000 nM on IKZF1 (HEK293 HiBiT) and 7 nM on IKZF2 [2].
Take `C[C@]1(O)CC[C@H](NC2CCC(F)(F)CC2)[C@@H](Cc2ccc3c(c2)CN(C2CCC(=O)NC2=O)C3=O)C1` (stereo partly drawn) [Example 155]: the Dmax at IKZF2 [1] was 91%; on IKZF1 (setting [3]), 27%; on IKZF2 [2], 97%. The DC50 at IKZF2 [1] came out at 12 nM; at IKZF1 (HEK293 HiBiT) it was 226 nM; on IKZF2 [2], 30 nM.
Consider `COC1CCC(N[C@H]2CCCO[C@@H]2Cc2ccc3c(c2F)CN(C2CCC(=O)NC2=O)C3=O)CC1` (stereo partly drawn) [Example 159], for which the values for the Dmax at IKZF2 [1] and at IKZF2 [2] were 94% and 100%, respectively. Further, the results for the DC50 at IKZF2 [1], on IKZF1 (HEK293 HiBiT) and on IKZF2 [2] were 5 nM, above 1000 nM and 6 nM, respectively.
Regarding `O=C1CCC(N2Cc3cc(C[C@H]4CCCC[C@@H]4NC4CCCCCC4)ccc3C2=O)C(=O)N1` (stereo partly drawn) [Example 196], the values for the Dmax on IKZF2 [1], on IKZF1 (setting [3]) and on IKZF2 [2] were 98%, 23% and 97%, respectively. Also, the DC50 on IKZF2 [1] was found to be 3 nM; at IKZF1 (HEK293 HiBiT), 60 nM; at IKZF2 [2] it was 3 nM.
As to `CC(N[C@H]1CCCC[C@@H]1Cc1ccc2c(c1)CN(C1CCC(=O)NC1=O)C2=O)C1(C)CCC1` (stereo partly drawn) [Example 206], the values for the Dmax at IKZF2 [1] and at IKZF2 [2] were 101% and 95%, respectively. In addition, the DC50 was 10 nM on IKZF2 [1], above 1000 nM at IKZF1 (HEK293 HiBiT) and 6 nM on IKZF2 [2].
For `CC1(C)CC(N[C@H]2CCCC[C@@H]2Cc2ccc3c(c2)CN(C2CCC(=O)NC2=O)C3=O)CC(C)(C)O1` (stereo partly drawn) [Example 208], the Dmax on IKZF2 [1] amounted to 97%; on IKZF1 (setting [3]), 26%; at IKZF2 [2], 98%. Moreover, the DC50 on IKZF2 [1] was determined as 3 nM; on IKZF1 (HEK293 HiBiT), 76 nM; at IKZF2 [2], 2 nM.
With `[2H]C1(N[C@H]2CCCC[C@@H]2Cc2ccc3c(c2)CN(C2CCC(=O)NC2=O)C3=O)CC(C)(C)C1` (stereo partly drawn) [Example 214], the Dmax on IKZF2 [1] came out at 98%; on IKZF1 (setting [3]), 22%; on IKZF2 [2], 96%. Further, the DC50 came to 3 nM on IKZF2 [1], 65 nM on IKZF1 (HEK293 HiBiT) and 5 nM at IKZF2 [2].
Regarding `O=C1CCC(N2Cc3cc(C[C@H]4CCCC[C@@H]4NC4CCC(C(F)F)CC4)ccc3C2=O)C(=O)N1` (stereo partly drawn) [Example 217], at IKZF2 [1], the Dmax turned out to be 89% and the DC50 was 2 nM. The DC50 on IKZF1 (HEK293 HiBiT) was 85 nM. The “IKZF1 Dmax” value on IKZF1 (HEK293 HiBiT, maximum degradation at the highest concentration tested) was 44%. Moreover, on IKZF2 [2], the DC50 was found to be 3 nM and the “IKZF2 Dmax” value is recorded as 97%.
Turning to `CC(N[C@H]1CCCC[C@@H]1Cc1ccc2c(c1)CN(C1CCC(=O)NC1=O)C2=O)C1CCC1` (stereo partly drawn) [Example 219], the “IKZF2 Dmax” value at IKZF2 [1] was determined as 97%; at IKZF2 [2], 95%. The results for the DC50 on IKZF2 [1], at IKZF1 (HEK293 HiBiT) and at IKZF2 [2] were 10 nM, above 1000 nM and 6 nM, respectively.
In the case of `CC(CC(C)(C)C)N[C@H]1CCCC[C@@H]1Cc1ccc2c(c1)CN(C1CCC(=O)NC1=O)C2=O` (stereo partly drawn) [Example 220], the Dmax on IKZF2 [1] was found to be 98%. Also, the values for the DC50 at IKZF2 [1], at IKZF1 (HEK293 HiBiT) and on IKZF2 [2] were 3 nM, above 1000 nM and 2 nM, respectively. The “IKZF2 Dmax” value on IKZF2 [2] worked out at 96%.
`CC(CC(C)(C)C)N[C@H]1CCCC[C@@H]1Cc1ccc2c(c1)CN(C1CCC(=O)NC1=O)C2=O` (stereo partly drawn) [Example 221]: the “IKZF2 Dmax” value was 101% on IKZF2 [1] and 98% on IKZF2 [2]. For the same molecule, the DC50 on IKZF2 [1] was 4 nM; on IKZF1 (HEK293 HiBiT), above 1000 nM; at IKZF2 [2] it was 2 nM.
